Laboratory results published in ChEMBL document CHEMBL1201862, “PubChem BioAssay data set” (2004).
The source made the active and inactive calls.

Assays:
[1] = target: T1, Rac GTPase-activating protein 1 (Homo sapiens, UniProt Q9H0H5); experiment: blockers of MgcRacGAP-driven Rac1 GTP hydrolysis – biochemical, ADP Hunter fluorescence, primary and confirmatory, confirmation (AID 624330); format: functional
T1 sequence (Q9H0H5 whole entry): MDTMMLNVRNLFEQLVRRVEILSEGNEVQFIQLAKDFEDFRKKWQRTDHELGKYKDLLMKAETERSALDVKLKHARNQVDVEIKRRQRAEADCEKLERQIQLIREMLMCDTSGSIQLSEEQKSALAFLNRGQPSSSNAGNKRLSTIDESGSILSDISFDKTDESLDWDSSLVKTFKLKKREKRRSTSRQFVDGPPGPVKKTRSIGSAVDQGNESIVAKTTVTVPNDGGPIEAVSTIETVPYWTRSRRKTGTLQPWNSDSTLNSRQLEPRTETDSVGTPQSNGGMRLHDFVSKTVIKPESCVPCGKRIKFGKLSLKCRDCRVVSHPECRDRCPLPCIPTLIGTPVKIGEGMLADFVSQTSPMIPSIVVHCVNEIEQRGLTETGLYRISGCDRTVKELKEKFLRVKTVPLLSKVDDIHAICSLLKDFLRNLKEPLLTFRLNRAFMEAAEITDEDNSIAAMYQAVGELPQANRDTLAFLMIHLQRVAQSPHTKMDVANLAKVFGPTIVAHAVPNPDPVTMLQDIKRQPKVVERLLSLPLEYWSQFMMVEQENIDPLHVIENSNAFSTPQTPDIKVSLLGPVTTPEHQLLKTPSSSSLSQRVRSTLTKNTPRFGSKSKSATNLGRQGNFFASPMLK

[2] = Fluorescence-based cell-based high throughput dose response assay for inhibitors of the interaction of nucleotide-binding oligomerization domain containing 2 (NOD2) and the receptor-interacting serine-threonine kinase 2 (RIPK2).; format: functional; details: Homo sapiens
[3] = target: Beta Lactamase (Pseudomonas aeruginosa, UniProt Q932Y6); experiment: BLA reporter interference, concentration series – BLA reporter cells, FRET fluorescence, artefact control for NOD2-RIPK2 interaction inhibitor project, dose response (AID 651552); format: functional, cell-based
Sequence of Beta Lactamase (Q932Y6 whole entry): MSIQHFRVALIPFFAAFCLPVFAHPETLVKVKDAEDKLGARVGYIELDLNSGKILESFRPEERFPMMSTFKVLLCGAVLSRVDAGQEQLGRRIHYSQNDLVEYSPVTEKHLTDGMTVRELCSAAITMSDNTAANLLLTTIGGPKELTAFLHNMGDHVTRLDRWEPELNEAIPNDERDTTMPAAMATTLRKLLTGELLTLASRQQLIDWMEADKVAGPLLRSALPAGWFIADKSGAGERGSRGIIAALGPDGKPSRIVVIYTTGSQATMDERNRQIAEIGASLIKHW

[4] = target: Glucose-6-phosphate 1-dehydrogenase (Homo sapiens, UniProt P11413); experiment: inhibition of Homo sapiens G6PD, dose series – biochemical, fluorescence, selectivity assay for P. falciparum G6PD inhibitor project, dose response (AID 504792); format: functional
Sequence of Glucose-6-phosphate 1-dehydrogenase (P11413 whole entry): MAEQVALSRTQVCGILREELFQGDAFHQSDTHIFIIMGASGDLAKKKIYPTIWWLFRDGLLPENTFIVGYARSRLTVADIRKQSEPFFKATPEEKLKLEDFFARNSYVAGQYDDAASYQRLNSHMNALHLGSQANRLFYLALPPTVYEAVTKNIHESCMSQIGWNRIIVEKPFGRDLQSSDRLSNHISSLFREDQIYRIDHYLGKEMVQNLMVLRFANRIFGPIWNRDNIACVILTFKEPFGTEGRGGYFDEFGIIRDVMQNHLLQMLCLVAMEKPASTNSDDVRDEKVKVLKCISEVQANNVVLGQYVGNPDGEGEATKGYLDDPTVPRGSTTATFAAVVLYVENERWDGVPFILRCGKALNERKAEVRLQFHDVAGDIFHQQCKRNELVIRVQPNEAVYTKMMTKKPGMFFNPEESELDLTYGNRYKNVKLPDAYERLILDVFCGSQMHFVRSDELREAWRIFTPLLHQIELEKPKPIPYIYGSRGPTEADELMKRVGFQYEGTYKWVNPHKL

[5] = Counterscreen for activators of the function of SWI/SNF related, matrix associated, actin dependent regulator of chromatin, subfamily a, member 2 (SMARCA2, BRM): Luminescence-based cell-based high throughput dose response assay to identify non-selective compounds using the VP16 reporter assay.; format: functional
[6] = target: Mitochondrial peptide methionine sulfoxide reductase (Bos taurus, UniProt P54149); experiment: Absorbance-based biochemical high throughput dose response assay for activators of Methionine sulfoxide reductase A (MsrA).; format: functional
Sequence of Mitochondrial peptide methionine sulfoxide reductase (P54149 whole entry): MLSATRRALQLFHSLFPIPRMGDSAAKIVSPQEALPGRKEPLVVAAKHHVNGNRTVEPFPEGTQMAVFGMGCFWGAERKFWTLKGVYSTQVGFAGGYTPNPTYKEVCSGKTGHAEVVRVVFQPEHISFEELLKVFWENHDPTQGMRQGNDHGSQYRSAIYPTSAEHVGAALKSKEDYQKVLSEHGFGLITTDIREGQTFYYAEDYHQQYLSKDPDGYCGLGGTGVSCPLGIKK

[7] = target: Hexokinase (Trypanosoma brucei, UniProt Q38C41); experiment: Confirmation assay for inhibitors of Trypanosoma brucei hexokinase 1-Analogue-first series. [Related pubchem assays (depositor defined):AID1430, AID1632, AID2516, AID2560, AID2579, AID2600, AID449725, AID492951]; format: functional
Sequence of Hexokinase (Q38C41 whole entry): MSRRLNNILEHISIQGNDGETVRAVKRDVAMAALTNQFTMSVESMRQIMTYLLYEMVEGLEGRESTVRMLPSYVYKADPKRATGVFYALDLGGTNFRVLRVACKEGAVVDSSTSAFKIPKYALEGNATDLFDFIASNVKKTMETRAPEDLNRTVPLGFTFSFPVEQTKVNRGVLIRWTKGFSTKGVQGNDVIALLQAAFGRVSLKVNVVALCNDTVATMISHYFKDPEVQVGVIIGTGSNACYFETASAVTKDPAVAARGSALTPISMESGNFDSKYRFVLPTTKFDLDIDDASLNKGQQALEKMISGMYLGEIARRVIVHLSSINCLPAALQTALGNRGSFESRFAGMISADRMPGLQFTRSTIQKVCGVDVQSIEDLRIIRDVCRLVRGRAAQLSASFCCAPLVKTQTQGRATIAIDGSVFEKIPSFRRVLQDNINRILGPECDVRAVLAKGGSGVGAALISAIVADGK

[8] = target: SWI/SNF-related matrix-associated actin-dependent regulator of chromatin subfamily A member 2 (Homo sapiens, UniProt P51531); experiment: Luminescence-based cell-based high throughput dose response assay to identify activators of the function of SWI/SNF related, matrix associated, actin dependent regulator of chromatin, subfamily a, member 2 (SMARCA2, BRM).; format: functional
Sequence of SWI/SNF-related matrix-associated actin-dependent regulator of chromatin subfamily A member 2 (P51531 whole entry): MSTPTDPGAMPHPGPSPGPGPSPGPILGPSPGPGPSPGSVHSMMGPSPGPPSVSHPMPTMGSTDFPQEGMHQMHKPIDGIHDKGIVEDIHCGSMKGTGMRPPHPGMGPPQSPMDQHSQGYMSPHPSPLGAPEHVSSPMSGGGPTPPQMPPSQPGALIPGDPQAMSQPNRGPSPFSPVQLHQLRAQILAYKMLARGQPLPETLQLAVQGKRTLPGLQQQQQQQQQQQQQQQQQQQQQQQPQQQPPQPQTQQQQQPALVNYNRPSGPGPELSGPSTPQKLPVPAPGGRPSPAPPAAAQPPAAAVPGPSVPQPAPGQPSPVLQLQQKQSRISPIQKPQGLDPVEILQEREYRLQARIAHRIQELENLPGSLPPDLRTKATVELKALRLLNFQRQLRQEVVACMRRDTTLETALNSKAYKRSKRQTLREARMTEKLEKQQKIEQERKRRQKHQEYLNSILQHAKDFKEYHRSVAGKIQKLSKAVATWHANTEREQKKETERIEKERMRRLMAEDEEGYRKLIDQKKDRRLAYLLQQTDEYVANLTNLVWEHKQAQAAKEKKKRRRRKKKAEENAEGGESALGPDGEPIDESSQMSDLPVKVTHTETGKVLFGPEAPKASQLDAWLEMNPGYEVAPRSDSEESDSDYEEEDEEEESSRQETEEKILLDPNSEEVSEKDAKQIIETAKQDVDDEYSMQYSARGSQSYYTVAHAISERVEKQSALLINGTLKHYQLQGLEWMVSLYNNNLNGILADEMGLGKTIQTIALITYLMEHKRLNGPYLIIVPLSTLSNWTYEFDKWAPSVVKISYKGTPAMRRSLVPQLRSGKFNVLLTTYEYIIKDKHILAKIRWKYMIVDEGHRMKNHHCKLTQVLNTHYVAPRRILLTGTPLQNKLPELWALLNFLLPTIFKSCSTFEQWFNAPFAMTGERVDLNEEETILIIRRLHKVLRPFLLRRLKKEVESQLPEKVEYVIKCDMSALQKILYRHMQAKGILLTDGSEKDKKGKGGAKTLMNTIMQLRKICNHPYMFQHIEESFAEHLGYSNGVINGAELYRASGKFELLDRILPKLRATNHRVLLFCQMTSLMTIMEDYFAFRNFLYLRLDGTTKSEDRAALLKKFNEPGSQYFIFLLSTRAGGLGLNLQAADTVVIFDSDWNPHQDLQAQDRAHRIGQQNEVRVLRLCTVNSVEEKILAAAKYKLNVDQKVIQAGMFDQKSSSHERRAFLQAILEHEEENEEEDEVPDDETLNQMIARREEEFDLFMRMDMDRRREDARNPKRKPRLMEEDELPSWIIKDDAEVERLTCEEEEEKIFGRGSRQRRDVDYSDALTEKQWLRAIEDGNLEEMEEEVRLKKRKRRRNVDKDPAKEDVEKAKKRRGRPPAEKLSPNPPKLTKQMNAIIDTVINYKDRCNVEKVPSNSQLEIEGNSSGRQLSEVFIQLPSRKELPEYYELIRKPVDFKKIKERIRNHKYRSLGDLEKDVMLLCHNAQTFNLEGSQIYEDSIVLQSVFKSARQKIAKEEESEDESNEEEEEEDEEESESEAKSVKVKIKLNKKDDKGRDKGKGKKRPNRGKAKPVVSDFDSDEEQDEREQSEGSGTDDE

[9] = cells; format: functional, cell-based
[10] = cells; format: functional, cell-based; remark: listed apart in the source
[11] = target: T2, Trace amine-associated receptor 1 (Homo sapiens, UniProt Q96RJ0); experiment: Counterscreen for agonists of the human trace amine associated receptor 1 (hTAAR1): Fluorescence-based cell-based high throughput dose response assay to identify hTAAR1 agonist that also desensitize TAAR1 receptor response.; format: functional
T2 sequence (Q96RJ0 whole entry): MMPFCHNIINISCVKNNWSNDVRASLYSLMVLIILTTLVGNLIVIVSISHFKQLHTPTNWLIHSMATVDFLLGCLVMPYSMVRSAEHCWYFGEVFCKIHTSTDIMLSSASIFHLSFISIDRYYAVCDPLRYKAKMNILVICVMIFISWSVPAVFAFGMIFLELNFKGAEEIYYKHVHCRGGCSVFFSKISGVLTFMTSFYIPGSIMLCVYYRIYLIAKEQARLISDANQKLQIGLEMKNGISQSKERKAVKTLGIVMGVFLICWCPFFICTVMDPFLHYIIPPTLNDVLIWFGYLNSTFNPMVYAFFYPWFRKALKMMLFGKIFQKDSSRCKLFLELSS

[12] = target: T2, Trace amine-associated receptor 1; experiment: Fluorescence-based cell-based high throughput dose response assay to identify agonists of the human trace amine associated receptor 1 (TAAR1).; format: functional
[13] = target: Melanocortin receptor 4 (Homo sapiens, UniProt P32245); format: functional, cell-based;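 further: Cell-based assay with luminescence read-out, confirmatory dose-response testing for agonist activity of biased ligands at MC4R; human U2OS cells with tagged receptor and beta-arrestin; potency of agonists that increase receptor coupling to beta-arrestin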
Sequence of Melanocortin receptor 4 (P32245 whole entry): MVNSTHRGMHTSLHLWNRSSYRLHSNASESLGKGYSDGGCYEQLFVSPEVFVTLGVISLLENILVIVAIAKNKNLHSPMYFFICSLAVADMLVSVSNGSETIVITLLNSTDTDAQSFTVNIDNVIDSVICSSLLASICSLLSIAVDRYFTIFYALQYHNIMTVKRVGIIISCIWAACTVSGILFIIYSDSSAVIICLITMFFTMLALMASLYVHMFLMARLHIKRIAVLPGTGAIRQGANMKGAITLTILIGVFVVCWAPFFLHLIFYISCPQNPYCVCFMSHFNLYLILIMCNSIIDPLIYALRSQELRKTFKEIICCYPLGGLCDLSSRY

[14] = general mammalian cell viability loss – activator set, cherry-pick, cytotoxicity control for miR-122 modulator project, dose response (AID 720690); format: functional, cell-based;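 further: HEK293T human cells scored for general mammalian cytotoxicity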
[15] = general mammalian cell viability loss – inhibitor set, cherry-pick, set 2, cytotoxicity control for miR-122 modulator project, dose response (AID 720697); format: functional, cell-based
[16] = activation of miR-122 Renilla sensor silencing – cell-based, Huh7 psiCHECK-miR122, Renilla luciferase, cherry-picked, dose response (AID 651956); format: functional;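 further: huh7 hepatoma cells stably carrying a psiCHECK-2 miR-122 sensor plasmid; renilla luciferase signal reporting endogenous miR-122 activity after 48 h compound exposure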
[17] = LMP1-induced NF-kB luciferase signal inhibition – cell-based, EBV LMP1, dry powder, set 2, dose response (AID 624361); format: functional
[18] = inhibitors of EBV LMP1 NF-kappaB signaling – cell-based, luciferase reporter, luminescence, dry powder, set 2, dose response (AID 624376); format: functional
[19] = TNFa-induced NF-kB reporter signal decrease – HEK293 LMP1 reporter cells, dry powder, set 2, selectivity assay for EBV LMP1 NF-kB inhibitor project, dose response (AID 624369); format: functional
[20] = cytotoxicity in HEK293 background cells – cell-based, dry powder, set 2, counter-screen for EBV LMP1 inhibitor project, dose response (AID 624374); format: functional
[21] = system: Vero; experiment: viability loss in Vero cells – cell-based, plate reader, cherry-pick samples, cytotoxicity control, dose response (AID 687020); format: functional; details: Chlorocebus sabaeus
[22] = target: T3, Low molecular weight phosphotyrosine protein phosphatase (Homo sapiens, UniProt P24666); format: functional; details: read-out: IC50_Mean
T3 sequence (P24666 whole entry): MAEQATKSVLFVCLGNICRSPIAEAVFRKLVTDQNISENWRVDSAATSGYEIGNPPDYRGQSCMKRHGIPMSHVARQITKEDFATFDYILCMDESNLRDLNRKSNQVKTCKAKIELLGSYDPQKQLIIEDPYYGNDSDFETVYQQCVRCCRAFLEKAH

[23] = target: T3, Low molecular weight phosphotyrosine protein phosphatase; format: functional; details: read-out: IC50_Mean; remark: listed apart in the source
[24] = target: T4, Carboxy-terminal domain RNA polymerase II polypeptide A small phosphatase 1 (Homo sapiens, UniProt Q9GZU7); experiment: CTDSP1 inhibitors, concentration-response, biochemical, absorbance readout, ultra-high-throughput screen actives (AID 540297); format: functional
T4 sequence (Q9GZU7 whole entry): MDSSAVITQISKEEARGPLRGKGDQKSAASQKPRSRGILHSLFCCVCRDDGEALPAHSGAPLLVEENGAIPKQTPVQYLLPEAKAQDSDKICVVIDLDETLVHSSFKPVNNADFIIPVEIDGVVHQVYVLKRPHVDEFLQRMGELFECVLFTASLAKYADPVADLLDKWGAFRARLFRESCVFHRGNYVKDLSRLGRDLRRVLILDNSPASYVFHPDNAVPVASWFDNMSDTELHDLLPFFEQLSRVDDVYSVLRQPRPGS

For `CC(=O)Nc1ccc2sn(-c3ccccc3)c(=O)c2c1`, the IC50 [1] was 53.3 µM (active), the IC50 [2] was 6.19 µM (active) and the IC50 [3] was 23.4 µM (inactive). For the same compound, the IC50 [4] was 12.1 µM (active), the EC50 [5] was > 91.2 µM (inactive) and the EC50 [6] was > 104 µM (inactive). For the same compound, the IC50 [7] was 6.31 µM (active) and the EC50 [8] was > 91.2 µM (inactive).

With `O=C(O)C1C2CCC(C2)C1C(=O)NCCc1cccc(Cl)c1` (centres undefined) the IC50 [9] was > 29.9 µM (inactive), the EC50 [10] was > 29.9 µM (inactive) and the IC50 [11] was > 29.9 µM (inactive). For the same compound, the EC50 [12] was 2.58 µM (active).

In the case of `CC(=O)Nc1cc(-c2ccc(N(C)C)cc2)cn2c(-c3ccc(F)c(Cl)c3)cnc12`, the EC50 [13] is reported as 3.99 µM (active).

For `C[C@H](CO)N1C[C@H](C)[C@H](CN(C)C(=O)c2ccc3c(c2)OCO3)Oc2cc(C#Cc3ccccc3F)ccc2S1(=O)=O`, the AC50 [14] was 20.8 µM (active), the AC50 [15] was 23.7 µM (active) and the AC50 [16] was 36.6 µM (active).

Compound `COc1cccc(C(=O)Nc2ccc3c(c2)C(=O)N(C)C[C@H](OC)[C@@H](C)CN(CCc2ccccc2)[C@@H](C)CO3)c1` has an AbsAC35 [17] of 44.38 µM, an AbsAC35 [18] of 39.75 µM and an AbsAC35 [19] of 55.16 µM. The AbsAC35 [20] was 50.41 µM.

In the case of `COc1ccc(NC(=O)N[C@H]2CC[C@@H](CCn3cc(C4(O)CCCC4)nn3)O[C@@H]2CO)cc1`, the AC50 [21] is reported as 36.7 µM (active).

For `O=C(N/N=C\c1ccc(OC(=O)c2cccs2)cc1)c1ccc(Cl)cc1`, the IC50 [22] was 11.4 µM (active), the IC50 [23] was 4.51 µM (active) and the IC50 [24] was 2.16 µM (active).
